Measured values: patent US20230141783A1, “DIFFERENT FORMS OF 6-CHLORO-2-ETHYL-N-(4-(4-(4-(TRIFLUOROMETHOXY)PHENYL)PIPERIDINE-1-YL)BENZYL)IMIDAZO[1,2-A]PYRIDINE-3-CARBOXAMIDE” (priority 2019, published 2023)
Several values for one entry are separate records, joined by “and”; a condition that tells them apart may be missing. Equal entries are not always repeated. Where two headings read alike, the source gives them in different places.

Conditions: for solid form after slurrying in buffer (XRPD): all buffers tested (pH 1, 4.5, 6.8, 7.5)
[1] = pH 4.5 buffer, pull time 23 hrs
[2] = pH 6.8 buffer, pull time 22.5 hrs
[3] = pH 7.5 buffer, pull time 72 hrs

CCc1nc2ccc(Cl)cn2c1C(=O)NCc1ccc(N2CCC(c3ccc(OC(F)(F)F)cc3)CC2)cc1.Cc1ccc(S(=O)(=O)O)cc1.Cc1ccc(S(=O)(=O)O)cc1 [Ditosylate]
HPLC concentration based on avg std (pH 1, client result): 1.45 (client result) mg/ml

CCc1nc2ccc(Cl)cn2c1C(=O)NCc1ccc(N2CCC(c3ccc(OC(F)(F)F)cc3)CC2)cc1.Cl [HCl salt, 6-chloro-2-ethyl-N-(4-(4-(4-(trifluoromethoxy)phenyl)piperidine-1-yl)benzyl)imidazo[1,2-a]pyridine-3-carboxamide mono-hydrochloride]
solid form after slurrying in buffer (XRPD) (listed as HCl, mono-hydrochloride): Type 56
solid form after slurrying in buffer (XRPD) (mono-hydrochloride): no conversion to the free base was observed
solubility in comparison to the di-tosylate salt (pH 1): better solubility

CCc1nc2ccc(Cl)cn2c1C(=O)NCc1ccc(N2CCC(c3ccc(OC(F)(F)F)cc3)CC2)cc1.Cl [HCl salt, Type 36]
XRPD of solid isolated after pH solubility experiment (pH 1 buffer, pull time 24 hrs): T56 HCl salt crystalline
HPLC concentration based on avg std [1]: 0.000323 mg/mL and 0.000307 mg/mL
XRPD of solid isolated after pH solubility experiment [1]: T56 HCl salt crystalline
HPLC concentration based on avg std [2]: 0.000285 mg/mL and 0.000277 mg/mL
XRPD of solid isolated after pH solubility experiment [2]: T56 HCl salt crystalline
HPLC concentration based on avg std [3]: 3.28e-05 mg/mL and 3.57e-05 mg/mL
XRPD of solid isolated after pH solubility experiment [3]: T56 HCl salt crystalline

CCc1nc2ccc(Cl)cn2c1C(=O)NCc1ccc(N2CCC(c3ccc(OC(F)(F)F)cc3)CC2)cc1.O=P(O)(O)O [Phosphate salt, Type 37]
XRPD of solid isolated after pH solubility experiment (pH 1): T56 HCl salt v. disordered
HPLC concentration based on avg std (pH 1 buffer, pull time 24 hrs): 5.33 mg/mL and 5.64 mg/mL
XRPD of solid isolated after pH solubility experiment (pH 4.5): Type 28 disordered
HPLC concentration based on avg std [1]: 0.000384 mg/mL and 0.000336 mg/mL
XRPD of solid isolated after pH solubility experiment (pH 6.8): Type 28 disordered
HPLC concentration based on avg std [2]: 0.00028 mg/mL and 0.000297 mg/mL
XRPD of solid isolated after pH solubility experiment (pH 7.5): Type 28 disordered
HPLC concentration based on avg std [3]: 6.39e-05 mg/mL and 4.1e-05 mg/mL

CCc1nc2ccc(Cl)cn2c1C(=O)NCc1ccc(N2CCC(c3ccc(OC(F)(F)F)cc3)CC2)cc1 [Type 28]
solubility (pH 4.5 and above): < 0.00037 mg/mL

CCc1nc2ccc(Cl)cn2c1C(=O)NCc1ccc(N2CCC(c3ccc(OC(F)(F)F)cc3)CC2)cc1.Cl [Type 36]
solid form after slurrying in buffer (XRPD) (listed as Type 36 HCl salt): converted to new type HCl salt Type 56

CCc1nc2ccc(Cl)cn2c1C(=O)NCc1ccc(N2CCC(c3ccc(OC(F)(F)F)cc3)CC2)cc1.Cl [Type 56]
solubility (pH 1 buffer, room temperature): ~ 5.58 mg/mL

CCc1nc2ccc(Cl)cn2c1C(=O)NCc1ccc(N2CCC(c3ccc(OC(F)(F)F)cc3)CC2)cc1.Cc1ccc(S(=O)(=O)O)cc1 [pTSA salt, Type 20]
HPLC concentration based on avg std (pH 1 buffer, pull time 24 hrs): 0.33 mg/mL and 0.32 mg/mL
XRPD of solid isolated after pH solubility experiment (pH 1 buffer, pull time 24 hrs): p-TSA salt T20 crystalline
HPLC concentration based on avg std [1]: 0.000366 mg/mL and 0.000333 mg/mL
XRPD of solid isolated after pH solubility experiment [1]: Type 28 disordered
HPLC concentration based on avg std [2]: 0.000312 mg/mL and 0.000307 mg/mL
XRPD of solid isolated after pH solubility experiment [2]: Type 28 disordered
XRPD of solid isolated after pH solubility experiment [3]: Type 28 disordered
